Results as given in patent publication US20230085307A1, “PYRIDAZINONE COMPOUND AND HERBICIDE” (NISSAN CHEMICAL CORPORATION, priority 2019, published 2023).

How the values were obtained:
oval-leafed pondweed [1] = assay: Test Example 2: herbicidal activity, application during weed generation under submerged conditions (Table 17, symbol C); format: in vivo, oval-leafed pondweed (Monochoria vaginalis); details: AAH 320 g/ha; application during weed generation, submerged conditions
Method in brief: (§1)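 Mixed weed seedlings in alluvial soil under a 4 cm water layer, greenhouse-grown at 25–30° C. Compound given as a diluted emulsion into the floodwater at the 1–2 leaf stage; response graded after three weeks.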

barnyard grass = assay: Test Example 5: herbicidal effect by foliage application, plastic box (Table 20, symbol H); format: in vivo, barnyard grass (Echinochloa crus-galli); details: foliage application, 320 g/ha, evaluated three weeks after application
Method in brief: (§2)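 Plants sown in sterilized diluvial soil and grown 14 days in a greenhouse at 25° C to 30° C, then sprayed on the foliage with the compound's emulsion diluted in water to a predetermined herbicide amount. Injury to weeds and crops scored three weeks after application on a visual rating scale.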

green foxtail [2] = assay: Test Example 5: herbicidal effect by foliage application, plastic box (Table 20, symbol G); format: in vivo, green foxtail (Setaria viridis); details: foliage application, 320 g/ha, evaluated three weeks after application
Method in brief: as §2

chickweed [3] = assay: Test Example 4: herbicidal effect by soil treatment (Table 19, symbol P); format: in vivo, common chickweed (Stellaria media); details: 320 g/ha
Method in brief: (§3)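 Seeds were sown in sterilized diluvial soil and covered with about 1.5 cm of soil. An emulsion formulation diluted with water to a predetermined herbicide amount was sprayed evenly onto the soil surface. Plants grew in a greenhouse at 25° C. to 30° C., and the effect was scored three weeks after application using criteria from an earlier test.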

oval-leafed pondweed [4] = assay: Test Example 1: herbicidal activity, application before weed generation under submerged conditions (Table 16, symbol C); format: in vivo, oval-leafed pondweed (Monochoria vaginalis); details: 320 g/ha applied herbicide
Method in brief: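 Emulsion formulation, water-diluted to set dose, was put onto the flooded surface (4 cm depth, alluvial soil) the same day weeds were sown and 2.5-leaf rice transplanted. After 3 weeks at 25-30 °C under glass, each species was rated 0 (≤5% kill) to 5 (≥90% kill).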

blackgrass [5] = assay: Test Example 5: herbicidal effect by foliage application, plastic box (Table 20, symbol J); format: in vivo, blackgrass (Alopecurus myosuroides); details: foliage application, 320 g/ha, evaluated three weeks after application
Method in brief: as §2

green foxtail [6] = assay: Test Example 4: herbicidal effect by soil treatment (Table 19, symbol G); format: in vivo, green foxtail (Setaria viridis); details: 320 g/ha
Method in brief: as §3

redroot pigweed [7] = assay: Test Example 5: herbicidal effect by foliage application, plastic box (Table 20, symbol N); format: in vivo, redroot pigweed (Amaranthus retroflexus); details: foliage application, 320 g/ha, evaluated three weeks after application
Method in brief: as §2

redroot pigweed [8] = assay: Test Example 4: herbicidal effect by soil treatment (Table 19, symbol N); format: in vivo, redroot pigweed (Amaranthus retroflexus); details: 320 g/ha
Method in brief: as §3

chickweed [9] = assay: Test Example 5: herbicidal effect by foliage application, plastic box (Table 20, symbol P); format: in vivo, common chickweed (Stellaria media); details: foliage application, 320 g/ha, evaluated three weeks after application
Method in brief: as §2

Italian ryegrass = assay: Test Example 4: herbicidal effect by soil treatment (Table 19, symbol K); format: in vivo, Italian ryegrass (Lolium multiflorum); details: 320 g/ha
Method in brief: as §3

blackgrass [10] = assay: Test Example 4: herbicidal effect by soil treatment (Table 19, symbol J); format: in vivo, blackgrass (Alopecurus myosuroides); details: 320 g/ha
Method in brief: as §3

wild oat = assay: Test Example 4: herbicidal effect by soil treatment (Table 19, symbol I); format: in vivo, wild oat (Avena fatua); details: 320 g/ha
Method in brief: as §3

rice flat sedge = assay: Test Example 3: herbicidal effect by foliage application, Wagner pot (Table 18, symbol E); format: in vivo, rice flat sedge (Cyperus iria); details: 320 g/ha
Method in brief: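 Plants were sown in alluvial soil held under 0.1–0.5 cm standing water and grown 14 days in a greenhouse at 25–30 °C. An emulsifiable formulation, water-diluted to the set dose, was then sprayed onto the foliage, and effects were scored three weeks later using previously defined criteria.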

persian speedwell = assay: Test Example 4: herbicidal effect by soil treatment (Table 19, symbol R); format: in vivo, Persian speedwell (Veronica persica); details: 320 g/ha
Method in brief: as §3

late watergrass = assay: Test Example 2: herbicidal activity, application during weed generation under submerged conditions (Table 17, symbol A); format: in vivo, late watergrass (Echinochloa oryzicola); details: AAH 320 g/ha; application during weed generation, submerged conditions
Method in brief: as §1

In the case of `CCCC(=O)Oc1c(C)nn(C)c(=O)c1-c1c(-c2ccc(OC)c(F)c2)sc2ccc(F)cc12` [2-087], the “herbicidal effect rating, C: oval-leafed pondweed” value (“herbicidal effect rating, C” below) (oval-leafed pondweed [1]) is reported as 0 (Herbicidal rate of 5% or less (almost no effect)), the “herbicidal effect on H: barnyard grass” value (barnyard grass) is reported as 0 (Herbicidal rate of 5% or less (almost no effect)) and the “herbicidal effect on G: green foxtail” value (green foxtail [2]) is reported as 0 (Herbicidal rate of 5% or less (almost no effect)). The “herbicidal effect rating, P: chickweed” value (chickweed [3]) was 3 (Herbicidal rate of 40% or more and less than 70%), the “Herbicidal effect on C: oval-leafed pondweed (grade 0-5)” value (“Herbicidal effect on C” below) (oval-leafed pondweed [4]) was 4 (Herbicidal rate of 70% or more and less than 90%) and the “herbicidal effect on J: blackgrass” value (blackgrass [5]) was 0 (Herbicidal rate of 5% or less (almost no effect)). For the same compound, the “herbicidal effect rating, G: green foxtail” value (shortened to “herbicidal effect rating, G”) (green foxtail [6]) was 0 (Herbicidal rate of 5% or less (almost no effect)), the “herbicidal effect on N: redroot pigweed” value (redroot pigweed [7]) was 4 (Herbicidal rate of 70% or more and less than 90%) and the “herbicidal effect rating, N: redroot pigweed” value (shortened to “herbicidal effect rating, N”) (redroot pigweed [8]) was 3 (Herbicidal rate of 40% or more and less than 70%). The “herbicidal effect on P: chickweed” value (chickweed [9]) was 5 (Herbicidal rate of 90% or more (almost completely withered)), the “herbicidal effect rating, K: Italian ryegrass” value (“herbicidal effect rating, K” for short) (Italian ryegrass) was 0 (Herbicidal rate of 5% or less (almost no effect)) and the “herbicidal effect rating, J: blackgrass” value (blackgrass [10]) was 0 (Herbicidal rate of 5% or less (almost no effect)). The “herbicidal effect rating, I: wild oat” value (wild oat) was 0 (Herbicidal rate of 5% or less (almost no effect)), the “herbicidal effect on E (rice flat sedge), rating 0-5” value (“herbicidal effect on E” for short) (rice flat sedge) was 5 (Herbicidal rate of 90% or more (almost completely withered)) and the “herbicidal effect rating, R: persian speedwell” value (“herbicidal effect rating, R” below) (persian speedwell) was 5 (Herbicidal rate of 90% or more (almost completely withered)). The “herbicidal effect rating, A: late watergrass” value (late watergrass) was 0 (Herbicidal rate of 5% or less (almost no effect)).
`COc1ccc(-c2sc3ccc(F)cc3c2-c2c(O)c(C)nn(C)c2=O)cc1OC` [2-088] was tested, and the “herbicidal effect rating, C” value (oval-leafed pondweed [1]) was 2 (Herbicidal rate of 20% or more and less than 40%), the “herbicidal effect on H: barnyard grass” value (barnyard grass) was 3 (Herbicidal rate of 40% or more and less than 70%) and the “herbicidal effect on G: green foxtail” value (green foxtail [2]) was 5 (Herbicidal rate of 90% or more (almost completely withered)). The “herbicidal effect rating, P: chickweed” value (chickweed [3]) was 2 (Herbicidal rate of 20% or more and less than 40%), the “Herbicidal effect on C” value (oval-leafed pondweed [4]) was 0 (Herbicidal rate of 5% or less (almost no effect)) and the “herbicidal effect on J: blackgrass” value (blackgrass [5]) was 0 (Herbicidal rate of 5% or less (almost no effect)). For the same compound, the “herbicidal effect rating, G” value (green foxtail [6]) was 3 (Herbicidal rate of 40% or more and less than 70%), the “herbicidal effect on N: redroot pigweed” value (redroot pigweed [7]) was 5 (Herbicidal rate of 90% or more (almost completely withered)) and the “herbicidal effect rating, N” value (redroot pigweed [8]) was 4 (Herbicidal rate of 70% or more and less than 90%). The “herbicidal effect on P: chickweed” value (chickweed [9]) was 5 (Herbicidal rate of 90% or more (almost completely withered)), the “herbicidal effect rating, K” value (Italian ryegrass) was 3 (Herbicidal rate of 40% or more and less than 70%) and the “herbicidal effect rating, J: blackgrass” value (blackgrass [10]) was 0 (Herbicidal rate of 5% or less (almost no effect)). For the same compound, the “herbicidal effect rating, I: wild oat” value (wild oat) was 0 (Herbicidal rate of 5% or less (almost no effect)), the “herbicidal effect on E” value (rice flat sedge) was 5 (Herbicidal rate of 90% or more (almost completely withered)) and the “herbicidal effect rating, R” value (persian speedwell) was 3 (Herbicidal rate of 40% or more and less than 70%). The “herbicidal effect rating, A: late watergrass” value (late watergrass) was 3 (Herbicidal rate of 40% or more and less than 70%).
With `CCCC(=O)Oc1c(C)nn(C)c(=O)c1-c1c(-c2ccc(OC)c(OC)c2)sc2ccc(F)cc12` [2-089] the “herbicidal effect rating, C” value (oval-leafed pondweed [1]) was 4 (Herbicidal rate of 70% or more and less than 90%), the “herbicidal effect on H: barnyard grass” value (barnyard grass) was 4 (Herbicidal rate of 70% or more and less than 90%) and the “herbicidal effect on G: green foxtail” value (green foxtail [2]) was 5 (Herbicidal rate of 90% or more (almost completely withered)). For the same compound, the “herbicidal effect rating, P: chickweed” value (chickweed [3]) was 3 (Herbicidal rate of 40% or more and less than 70%), the “Herbicidal effect on C” value (oval-leafed pondweed [4]) was 4 (Herbicidal rate of 70% or more and less than 90%) and the “herbicidal effect on J: blackgrass” value (blackgrass [5]) was 0 (Herbicidal rate of 5% or less (almost no effect)). For the same compound, the “herbicidal effect rating, G” value (green foxtail [6]) was 5 (Herbicidal rate of 90% or more (almost completely withered)), the “herbicidal effect on N: redroot pigweed” value (redroot pigweed [7]) was 4 (Herbicidal rate of 70% or more and less than 90%) and the “herbicidal effect rating, N” value (redroot pigweed [8]) was 4 (Herbicidal rate of 70% or more and less than 90%). For the same compound, the “herbicidal effect on P: chickweed” value (chickweed [9]) was 5 (Herbicidal rate of 90% or more (almost completely withered)), the “herbicidal effect rating, K” value (Italian ryegrass) was 4 (Herbicidal rate of 70% or more and less than 90%) and the “herbicidal effect rating, J: blackgrass” value (blackgrass [10]) was 0 (Herbicidal rate of 5% or less (almost no effect)). For the same compound, the “herbicidal effect rating, I: wild oat” value (wild oat) was 0 (Herbicidal rate of 5% or less (almost no effect)), the “herbicidal effect on E” value (rice flat sedge) was 5 (Herbicidal rate of 90% or more (almost completely withered)) and the “herbicidal effect rating, R” value (persian speedwell) was 5 (Herbicidal rate of 90% or more (almost completely withered)). The “herbicidal effect rating, A: late watergrass” value (late watergrass) was 4 (Herbicidal rate of 70% or more and less than 90%).
In the case of `CCCC(=O)Oc1c(C)nn(C)c(=O)c1-c1c(-c2ccc3c(c2)OCO3)sc2ccc(F)cc12` [2-091], the “herbicidal effect rating, C” value (oval-leafed pondweed [1]) is reported as 4 (Herbicidal rate of 70% or more and less than 90%), the “herbicidal effect on H: barnyard grass” value (barnyard grass) is reported as 3 (Herbicidal rate of 40% or more and less than 70%) and the “herbicidal effect on G: green foxtail” value (green foxtail [2]) is reported as 1 (Herbicidal rate of 5% or more and less than 20%). For the same compound, the “herbicidal effect rating, P: chickweed” value (chickweed [3]) was 1 (Herbicidal rate of 5% or more and less than 20%), the “Herbicidal effect on C” value (oval-leafed pondweed [4]) was 5 (Herbicidal rate of 90% or more (almost completely withered)) and the “herbicidal effect on J: blackgrass” value (blackgrass [5]) was 3 (Herbicidal rate of 40% or more and less than 70%). The “herbicidal effect rating, G” value (green foxtail [6]) was 3 (Herbicidal rate of 40% or more and less than 70%), the “herbicidal effect on N: redroot pigweed” value (redroot pigweed [7]) was 3 (Herbicidal rate of 40% or more and less than 70%) and the “herbicidal effect rating, N” value (redroot pigweed [8]) was 5 (Herbicidal rate of 90% or more (almost completely withered)). The “herbicidal effect on P: chickweed” value (chickweed [9]) was 5 (Herbicidal rate of 90% or more (almost completely withered)), the “herbicidal effect rating, K” value (Italian ryegrass) was 3 (Herbicidal rate of 40% or more and less than 70%) and the “herbicidal effect rating, J: blackgrass” value (blackgrass [10]) was 0 (Herbicidal rate of 5% or less (almost no effect)). The “herbicidal effect rating, I: wild oat” value (wild oat) was 0 (Herbicidal rate of 5% or less (almost no effect)), the “herbicidal effect on E” value (rice flat sedge) was 5 (Herbicidal rate of 90% or more (almost completely withered)) and the “herbicidal effect rating, R” value (persian speedwell) was 4 (Herbicidal rate of 70% or more and less than 90%). For the same compound, the “herbicidal effect rating, A: late watergrass” value (late watergrass) was 0 (Herbicidal rate of 5% or less (almost no effect)).
